In article PMC12715756 (ACS Chemical Neuroscience, 2025):

Legend:
[1] = target: DAT (Homo sapiens, UniProt Q01959); test: cell-based; conditions: read-out: Emax [95%-CI], DAT mediated [3H]MPP+ release
[2] = target: NET (Homo sapiens, UniProt P23975); test: Release (superfusion) assay, NET mediated [3H]MPP+ release; conditions: for Emax: read-out: Emax [95%-CI], NET mediated [3H]MPP+ release
[3] = target: SERT (Homo sapiens, UniProt P31645); test: Release (superfusion) assay, SERT mediated [3H]5-HT efflux; conditions: for Emax: read-out: Emax [95%-CI], SERT mediated [3H]5-HT efflux
[4] = tested on: male Swiss CD-1 mice; test: Open field test (thigmotaxis); format: in vivo; conditions: 10 mg/kg i.p., vs saline
Description: Male Swiss CD-1 mice (Janvier, Le Genest, France), weighing 30–35 g and aged 6–8 weeks, were used for HLA, thigmotaxis, CPP, and core body temperature experiments. Animals were housed under temperature-controlled conditions (22 ± 1 °C) with a 12 h light/dark cycle and had free access to food and water (standard laboratory diet, Panlab SL, Barcelona, Spain). Doses for HLA, thigmotaxis, CPP, and core body temperature experiments were calculated based on the free base form of each compound. […] Doses for HTR experiments were calculated based on the respective salt forms of the compounds.
A habituation phase was performed to reduce the stress and novelty associated with handling and injection. […] On the test day, their horizontal locomotor activity (HLA) was measured. […] HLA was video monitored for 2 h, and a specific tracking software (Smart 3.0 Panlab, Barcelona, Spain) was used to measure their total traveled distance (in cm). Center Versus Periphery: The thigmotactic effects of the test compounds, widely considered as anxiety-like effects, were assessed through an OF test. […] The time spent, in seconds, in the center (8 × 8 cm) or the periphery of the arena was monitored for 2 h (Smart 3.0 Panlab, Barcelona, Spain).

[5] = target: T1, 5-HT2C (Homo sapiens, UniProt P28335); test: cell-based; conditions: for EC50: Gq dissociation BRET; for Emax: HEK-293T, read-out: Emax ± SEM, %5-HT response 5-HT2C
T1 construct: expressed in transfected cells; host or cells: HEK293T (ATCC; RRID:CVCL_0063), transient transfection
T1 sequence (P28335 33-458): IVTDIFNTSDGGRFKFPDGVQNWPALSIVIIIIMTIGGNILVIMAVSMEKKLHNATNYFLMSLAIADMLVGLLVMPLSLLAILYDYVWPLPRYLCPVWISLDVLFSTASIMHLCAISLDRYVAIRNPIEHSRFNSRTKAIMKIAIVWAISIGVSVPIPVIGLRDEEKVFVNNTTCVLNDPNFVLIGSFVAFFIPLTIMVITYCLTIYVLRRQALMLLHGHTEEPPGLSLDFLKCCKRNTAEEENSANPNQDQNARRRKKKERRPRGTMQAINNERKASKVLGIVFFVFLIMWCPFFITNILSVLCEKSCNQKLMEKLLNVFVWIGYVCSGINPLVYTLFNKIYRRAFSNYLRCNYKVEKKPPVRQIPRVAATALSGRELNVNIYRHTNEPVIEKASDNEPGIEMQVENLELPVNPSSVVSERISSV

[6] = tested on: male Swiss CD-1 mice; test: Conditioned place preference (CPP); format: in vivo; conditions: for rewarding effects (CPP preference score): 10 mg/kg i.p., compared to saline; for CPP preference score: lowest dose tested
Description: (§1) Male Swiss CD-1 mice (Janvier, Le Genest, France), weighing 30–35 g and aged 6–8 weeks, were used for HLA, thigmotaxis, CPP, and core body temperature experiments. Animals were housed under temperature-controlled conditions (22 ± 1 °C) with a 12 h light/dark cycle and had free access to food and water (standard laboratory diet, Panlab SL, Barcelona, Spain). Doses for HLA, thigmotaxis, CPP, and core body temperature experiments were calculated based on the free base form of each compound. For HTR experiments, male C57BL/6J mice (6–8 weeks old) were obtained from Jackson Laboratories (Bar Harbor, ME, USA) and housed up to four per cage with a reversed light-cycle (lights on at 1900 h, off at 0700 h). Food and water were provided ad libitum, except during behavioral testing. Testing was conducted between 1000 and 1830 h. Doses for HTR experiments were calculated based on the respective salt forms of the compounds.
For this experiment, an apparatus with two distinct compartments, differing in tactile and visual cues, connected by a central corridor, was used. The conditioned place preference (CPP) procedure consisted of three phases: preconditioning, conditioning, and postconditioning. In the preconditioning phase (day 0), mice were placed in the middle of the corridor and allowed to freely explore both compartments for 15 min. The time spent in each compartment was recorded and monitored using specific tracking software (Smart 3.0 Panlab, Barcelona, Spain). In the conditioning phase (day 1–day 8), access to the corridor was closed. […] On alternate days, , mice received a saline i.p. injection and were placed in the other compartment for 30 min. Mice in the control group received a saline injection in every session. The compartments and sessions in which the drug was administered were randomized. In the postconditioning phase (test day), the same conditions as the preconditioning phase were reinstated. A preference score was determined by calculating the difference in time spent in the drug-paired compartment between the post- and preconditioning phases.

[7] = tested on: male C57BL/6J mice; test: Head-twitch response (HTR); format: in vivo; conditions: IP, 30 min, doses based on the salt form
Description: as §1
The HTR was assessed using a head-mounted magnet and a magnetometer detection coil. Mice were anesthetized, a small incision was made in the scalp, and a small neodymium magnet was attached to the dorsal surface of the cranium by using dental cement. Following a two week recovery period, HTR experiments were carried out in a well-lit room with at least 7 days between sessions to avoid carryover effects. Mice (N = 4–7/group) received intraperitoneal (IP) injections of vehicle (saline) or test drug (5 mL/kg injection volume), and then activity was recorded in a glass cylinder surrounded by a magnetometer coil for 30 min. Doses for HTR experiments were calculated based on the respective salt forms of the compounds. Coil voltage was low-pass filtered (1 kHz cutoff frequency), amplified, digitized (20 kHz sampling rate, 16-bit ADC resolution), and saved to disk using a Powerlab 8/35 data acquisition system with LabChart software (ver. 8.1 ADInstruments, Colorado Springs, CO, USA). To detect head twitches, events in the recordings were transformed to scalograms, deep features were extracted using the deep convolutional neural network ResNet-50, and then the images were classified using a support vector machine (SVM). Head twitch counts were analyzed using one-way ANOVA. Posthoc comparisons were made using Dunnett’s test.

Chain of NET (P23975 whole entry, the tested form may be a part): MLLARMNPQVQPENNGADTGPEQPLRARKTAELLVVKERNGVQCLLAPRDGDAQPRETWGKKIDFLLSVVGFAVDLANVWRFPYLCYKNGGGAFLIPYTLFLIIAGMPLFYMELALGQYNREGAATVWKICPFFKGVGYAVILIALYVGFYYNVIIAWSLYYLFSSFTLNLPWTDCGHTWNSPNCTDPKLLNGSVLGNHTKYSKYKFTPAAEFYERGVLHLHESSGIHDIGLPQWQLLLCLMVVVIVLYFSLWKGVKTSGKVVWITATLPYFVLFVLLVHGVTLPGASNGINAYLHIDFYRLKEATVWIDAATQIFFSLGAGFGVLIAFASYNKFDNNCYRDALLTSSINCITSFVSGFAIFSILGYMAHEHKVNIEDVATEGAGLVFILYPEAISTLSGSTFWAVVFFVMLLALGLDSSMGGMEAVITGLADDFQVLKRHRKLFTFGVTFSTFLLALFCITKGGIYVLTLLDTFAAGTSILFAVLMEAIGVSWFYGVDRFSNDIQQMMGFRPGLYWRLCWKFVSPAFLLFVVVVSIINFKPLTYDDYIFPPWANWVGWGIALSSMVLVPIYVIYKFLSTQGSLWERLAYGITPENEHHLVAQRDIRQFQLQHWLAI
Chain of SERT (P31645 whole entry, the tested form may be a part): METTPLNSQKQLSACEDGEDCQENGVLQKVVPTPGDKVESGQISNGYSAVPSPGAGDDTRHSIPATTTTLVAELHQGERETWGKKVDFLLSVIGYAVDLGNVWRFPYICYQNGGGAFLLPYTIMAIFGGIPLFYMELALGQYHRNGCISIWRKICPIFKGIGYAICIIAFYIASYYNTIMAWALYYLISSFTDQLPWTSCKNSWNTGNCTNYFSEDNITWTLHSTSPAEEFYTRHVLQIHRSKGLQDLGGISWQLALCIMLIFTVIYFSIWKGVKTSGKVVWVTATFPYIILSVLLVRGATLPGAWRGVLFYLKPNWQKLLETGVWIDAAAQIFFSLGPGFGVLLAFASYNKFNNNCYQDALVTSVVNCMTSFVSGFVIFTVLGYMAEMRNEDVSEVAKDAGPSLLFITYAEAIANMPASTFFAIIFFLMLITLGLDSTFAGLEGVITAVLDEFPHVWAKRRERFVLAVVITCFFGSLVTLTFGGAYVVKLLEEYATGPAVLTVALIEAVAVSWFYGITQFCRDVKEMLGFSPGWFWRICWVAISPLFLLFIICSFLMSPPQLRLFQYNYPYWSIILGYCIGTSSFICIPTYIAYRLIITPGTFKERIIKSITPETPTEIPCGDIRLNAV
Chain of DAT (Q01959 whole entry, the tested form may be a part): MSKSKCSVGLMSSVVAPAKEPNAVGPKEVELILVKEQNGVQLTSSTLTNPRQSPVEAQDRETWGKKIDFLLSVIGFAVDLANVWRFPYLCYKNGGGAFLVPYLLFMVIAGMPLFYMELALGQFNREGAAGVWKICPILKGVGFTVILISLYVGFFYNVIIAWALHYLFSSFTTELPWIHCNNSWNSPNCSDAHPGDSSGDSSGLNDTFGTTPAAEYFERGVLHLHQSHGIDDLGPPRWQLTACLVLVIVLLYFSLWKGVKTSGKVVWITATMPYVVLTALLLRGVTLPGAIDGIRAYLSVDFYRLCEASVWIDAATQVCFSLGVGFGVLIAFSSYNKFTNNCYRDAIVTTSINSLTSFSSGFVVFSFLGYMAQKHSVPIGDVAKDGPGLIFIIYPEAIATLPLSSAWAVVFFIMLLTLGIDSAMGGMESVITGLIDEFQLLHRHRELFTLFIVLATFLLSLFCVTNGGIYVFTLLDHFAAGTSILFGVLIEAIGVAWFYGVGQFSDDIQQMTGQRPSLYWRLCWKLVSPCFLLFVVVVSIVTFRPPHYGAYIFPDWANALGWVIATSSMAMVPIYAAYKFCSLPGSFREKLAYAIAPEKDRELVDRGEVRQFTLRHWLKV

SMILES	Emax [1] [%]	EC50 [2] [µM]	type of releaser at NET [2]	Emax [2] [%]	EC50 [3] [µM]	type of releaser at SERT [3]	Emax [3] [%]	time spent in the center of the arena (thigmotaxis) [4]	EC50 [5] [µM]	Emax [5] [%]	rewarding effects (CPP preference score) [6]	CPP preference score [6]	HTR counts [7]
CC(N)Cc1ccc2c(c1)SCO2 (stereo not shown) [SDA, 1-(1,3-benzoxathiol-5-yl)propan-2-amine]	55.4	0.15	full releasers	99.6	0.27	partial releasers	70.5	significantly decreased the time spent in the center of the arena	0.0481	92.9 ± 4.9	neither SDA nor SDMA induced significant rewarding effects	significant preference score	dose-related increase in HTR counts peaking at 3 mg/kg
CNC(C)Cc1ccc2c(c1)SCO2 (stereo not shown) [SDMA, 1-(1,3-benzoxathiol-5-yl)-N-methylpropan-2-amine]	35.4	0.36	full releasers	104	0.18	partial releasers	71.5	–	0.656	79 ± 5.3	neither SDA nor SDMA induced significant rewarding effects	positive preference score at the same dose, it did not reach significance	Neither MDMA nor SDMA induced an appreciable increase in HTR counts
